Experimental data: article PMC3236199, “Development of Derivatives of 3, 3′-Diindolylmethane as Potent Leishmania donovani Bi-Subunit Topoisomerase IB Poisons” (PLoS ONE, 2011)

Experiments:
[1] = test system: L. donovani AG83 amastigotes in Balb/c mouse peritoneal macrophages; test: In vitro macrophage infection, clearance of intracellular amastigotes; type: cell-based, Leishmania donovani; settings: 50 µM, 24 h, infected mouse macrophages
Text: Balb/c mice, originally obtained from Jackson Laboratories, Bar Harbor, ME and reared in the institute animal facilities, were used for experimental purposes with prior approval of the animal ethics committee. Macrophages were isolated from mice 36 to 48 hr post injection (intraperitoneal) with 2% (w/v) hydrolyzed starch by peritoneal lavage with ice-cold phosphate-buffered saline. Cells were washed and cultured for 18–24 hr (for adherence) in RPMI 1640 (supplemented with 100 IU/ml of penicillin and […] of streptomycin) containing 10% (v/v) heat-inactivated FBS (RPMI-FBS) at 37°C with 5% CO2 in air on sterile cover glass (22 mm×22 mm) placed in disposable plates 35 mm in diameter (Tarsons India Ltd.). The culture medium was washed off and fresh RPMI-FBS was added. About 5×10^5 macrophages were maintained for proper distribution on cover glass. During the course of this study, macrophages were infected with promastigotes at a macrophage-to-parasite ratio of 1∶10 in RPMI-FBS for 6 hours to ensure entry of parasite. Following incubation, unphagocytosed parasites were removed by washing with medium, and cells were resuspended in RPMI-FBS at 37°C, 5% CO2 and then incubated for 6 hrs. Cultures were transferred to a CO2 incubator at 37°C and incubated for another 10–12 hr. Respective inhibitors were added at different concentrations (ranging from 5 µM to 50 µM) to infected macrophages and left for another 24 hr period. Cells were then fixed in methanol and stained with 2% Giemsa. Percentages of infected cells and total number of intracellular parasites were determined by manual counting in at least 200 cells using light microscope.
Primary macrophage cells were obtained from Balb/c mice peritoneal extrudates. After adherence and inactivation, these macrophage cells were infected with early passaged L. donovani AG83 promastigotes were infected to macrophages. After subsequent washing they were incubated with different concentrations (5, 10, 20 and 50 µM) of each of these inhibitors for 24 h (Fig. 3A). Macrophages were fixed and intracellular amastigotes were counted by Giemsa staining. […]
Figure 3 Effectiveness of clearance of internalized L. donovani (AG83) from in vitro infected mouse M [drawing 3] . […] Cells were fixed, stained with Giemsa and counted under bright field microscope. […] Experiments were carried out for three times and representative results are the mean ± S.D. (B) Growth of DIM resistant L. donovani axenic amastigotes were monitored in presence of increasing concentrations (2, 5, 10, 20 and 50 µM) of DIM, DPDIM, DMDIM and DMODIM for 12 h. […] Growth of the parasites treated with the compounds was expressed as percentage of the viable promastigotes compared with that of control. […]

LdTOP1LS = test: Equilibrium (duplex oligonucleotide) cleavage assay, wild type enzyme; type: biochemical, Leishmania donovani; settings: 20 µM, with respect to cleavable complex formed without drug with wild type enzyme
Method: The 25-mer oligonucleotide 1 (5′-GAAAAAAGACTT↓AGAAAAATTTTTA-3′) was 5′-end labeled with [γ^32P] ATP and annealed with oligonucleotide 2 (5′-[…]-3′) to make a duplex oligonucleotide containing a topoisomerase I binding motif as described. Cleavage assay was carried out using 20-fold molar excess of enzymes over duplex 25-mer DNA (enzymes, 0.2 µM; DNA, 10 nM). The reactions were carried out in standard assay condition in the absence or presence of drugs at 37°C for 30 min. All the reactions were stopped by addition of SDS to a final concentration of 2% (w/v), digested with 5 µl of 1 mg/ml trypsin and analyzed by 12% denaturing polyacrylamide gel followed by autoradiography. The amount of strand cleavage in the presence of drugs was determined by densitometry of the film as described.
The effect of DIM and its derivatives on L. donovani topoisomerase I was examined by plasmid DNA cleavage assay as described. The topoisomerase reaction has three general mechanistic steps: (i) binding of enzyme to the substrate DNA, (ii) single strand breakage and subsequent strand rotation through the break leading to change in linking number, and (iii) strand religation. The second step of reaction is the introduction of a single-stranded nick in the phosphodiester bond of the DNA, through which an intact strand is allowed to pass. During this process, a covalent bond is formed between the 3′-phosphoryl group of the DNA backbone and the tyrosine residue at the active site of topoisomerase I. Topoisomerase inhibition can be achieved by prevention of enzyme-DNA binary complex formation or by stabilization of enzyme-DNA cleavable complex. To investigate the ability of DIM-derivatives to stabilize the cleavable complex formation between enzyme and oligonucleotide containing a topoisomerase IB specific binding motif we carried out plasmid cleavage assay as described previously. Cleavage assay was performed with LdTOP1LS and pHOT1 DNA containing a topoisomerase IB specific binding motif as described in ‘Materials and Methods’. […]

| Compound | efficiency of amastigote killing (clearance from macrophages) [1] | extent of cleavage (LdTOP1LS) |
| --- | --- | --- |
| c1ccc2c(Cc3c[nH]c4ccccc34)c[nH]c2c1 [DIM, 3, 3′-diindolyl methane, reference compound] | 91% |  |
| Cc1[nH]c2ccccc2c1Cc1c(C)[nH]c2ccccc12 [DMDIM, 2,2′-dimethyl 3,3′-diindolyl methane] | 92% | approximately 61% |
| COc1ccc2[nH]cc(Cc3c[nH]c4ccc(OC)cc34)c2c1 [DMODIM, 5,5′-dimethoxy 3,3′-diindolyl methane] | about 85% | ~56% |
| c1ccc(-c2[nH]c3ccccc3c2Cc2c(-c3ccccc3)[nH]c3ccccc23)cc1 [DPDIM, 2,2′-diphenyl 3,3′-diindolyl methane] | 96% | 67% |
